Assay results as given in US20250346587A1, “NITROGEN-CONTAINING FIVE-MEMBERED HETEROCYCLIC DERIVATIVES AS CHECKPOINT KINASE 1 INHIBITOR AND USES THEREOF” (SPEROGENIX THERAPEUTICS LIMITED, priority 2022, published 2025).
Values after ≈ are worked out from the molar mass of the structure shown.

Columns and labels:
CHK-1 kinase = CHK-1 kinase (Homo sapiens (Human), UniProt O14757); test: CHK-1 % inhibition kinase assay (TR-FRET); assay type: biochemical; details: ATP 15 μM; for inhibition at 0.03 µM / inhibition at 0.3 µM: CHK1 enzyme; for inhibition at 0.03 µM: compound 30 nM; for inhibition at 0.3 µM: compound 300 nM; for IC50: TR-FRET, read-out: CHK1 IC50
Method: Inhibition of CHK-1 kinase or percent inhibition at defined concentrations was determined by TR-FRET assay. Kinase reactions were performed in a 20 μL volume in low-volume 384-well plates (Cat #Corning 4511). The concentration of substrate Fluorescein-CREBtide was maintained at 0.2 μM in the assay, and the kinase reaction buffer consisted of 50 mM HEPES pH 7.5, 0.01% BRIJ-35, 10 mM MgCl2, 1 mM EGTA. Serially diluted compounds (3-fold) in DMSO (0.5% in final reaction) were incubated with cocktail of CHK-1 kinase (6 nM; Cat #PR3959B, ThermoFisher), Fluorescein-CREBtide (0.2 μM; Cat #PV3508, ThermoFisher), ATP (15 μM; Cat #A1852, Sigma), and kinase reaction buffer. After 1 hour kinase reactions at room temperature, 10 μL of Detection mix (8 nM LanthaScreen® Tb-CREB [pSer133] antibody, Cat #PV3542, ThermoFisher with 20 mM EDTA in TR-FRET Buffer, Cat #PV3574, ThermoFisher) was added, and the plate was read with a plate reader (Synergy™ NEO; Biotek) for TR-FRET.
The resulting TR-FRET emission ratio was used to calculate the percent inhibition by normalizing to the control using the following formula: […]

[1] = Microsomal stability assay, rat liver microsome; assay type: in vitro ADME; details: liver microsomes, pH 7.4, 0.2 mg/mL, 1 μM compound, 37° C., read-out: Clint RLM
Method: (§1) Incubation mixture contained 0.2 mg/mL microsomes, 1 mmol NADPH, and test compound at 1 μM in 100 mmol potassium phosphate buffer at pH 7.4. The mixtures were incubated at 37° C. for 5, 15, and 30 minutes. Aliquots of the mixtures were taken at 0, 5, 15 and 30 minutes and quenched with chilled Acetonitrile:Methanol (50:50) containing internal standard. Following completion of incubation, samples were centrifuged at 4,000 rpm at 4° C. The supernatant was analyzed by LC-MS/MS and half-life, as well as intrinsic clearance (Clint), were calculated.

[2] = Microsomal stability assay, human liver microsome; assay type: in vitro ADME; details: liver microsomes, pH 7.4, 0.2 mg/mL, 1 μM compound, 37° C., read-out: Clint HLM
Method: as §1

[3] = Kinetic solubility assay (nephelometry); details: PBS, 37 °C, pH 7.4, aqueous buffer, kinetic from dmso stock
Method: Test articles were serially diluted in DMSO from concentration range of 10 mM to 0.078 mM in 96 well v-bottom dilution plate (#3363, Corning). 1 μL of test article from each well was transferred to 96 well flat bottom clear plates (#655101, Greiner) containing 99 μL of PBS at pH-7.4, which makes the test drug final concentration range from 100 μM to 0.78 μM. Samples were incubated for 1 hour at 37° C. followed by measurement of light scattering at 625 nm with a laser based micro plate Nephelometer (Nephlostar Plus, BMG Labtech). Solubility concentration (μM) was then calculated by segmental regression with Neplometer as Readout.

[4] = Microsomal stability assay, mouse liver microsome; assay type: in vitro ADME; details: liver microsomes, pH 7.4, 0.2 mg/mL, 1 μM compound, 37° C., read-out: Clint MLM
Method: as §1

CHK-1 kinase, sequence (O14757 whole entry): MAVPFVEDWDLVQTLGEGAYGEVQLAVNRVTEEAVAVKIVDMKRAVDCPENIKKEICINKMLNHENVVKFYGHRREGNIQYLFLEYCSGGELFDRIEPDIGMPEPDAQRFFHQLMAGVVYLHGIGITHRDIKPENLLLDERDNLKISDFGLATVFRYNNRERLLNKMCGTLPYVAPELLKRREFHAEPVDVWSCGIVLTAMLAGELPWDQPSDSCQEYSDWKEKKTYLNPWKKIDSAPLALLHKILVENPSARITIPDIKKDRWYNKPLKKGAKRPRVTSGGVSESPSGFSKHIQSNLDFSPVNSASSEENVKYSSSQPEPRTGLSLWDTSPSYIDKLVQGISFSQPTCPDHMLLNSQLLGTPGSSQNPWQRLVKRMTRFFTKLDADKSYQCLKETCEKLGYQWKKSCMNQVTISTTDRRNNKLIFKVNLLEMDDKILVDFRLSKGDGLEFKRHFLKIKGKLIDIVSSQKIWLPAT

Row | inhibition at 0.03 µM (CHK-1 kinase) | inhibition at 0.3 µM (CHK-1 kinase) | microsomal CLint at 1 μM [1] | microsomal CLint at 1 μM [2] | solubility kinetic at 1 h [3] | microsomal CLint at 1 μM [4] | Compound | IC50 (CHK-1 kinase)
1 | 21% | 30% | 266 µL/min/mg | 478 µL/min/mg | 38.4 µM (≈ 16.1 µg/mL) | 473 µL/min/mg | CC(C)CC(C)N1CC(Oc2ccccc2-c2cc(Nc3cnc(C#N)cn3)no2)C1 (centres unmarked) [Compound 1.12, 5-(5-(2-(1-(4-methylpentan-2-yl)azetidin-3-yloxy)phenyl)isoxazol-3-ylamino) pyrazine-2-carbonitrile] | 
2 | 44% | 65% | 49 µL/min/mg | 80 µL/min/mg | 30.5 µM (≈ 10.6 µg/mL) | 243 µL/min/mg | CN1CC(Oc2ccccc2-c2cc(Nc3cnc(C#N)cn3)no2)C1 [Compound 1.10, 5-(5-(2-(1-methylazetidin-3-yloxy)phenyl)isoxazol-3-ylamino) pyrazine-2-carbonitrile] | 

Further lines, the compound ahead of its results:

Row | Compound | inhibition at 0.03 µM (CHK-1 kinase) | inhibition at 0.3 µM (CHK-1 kinase) | microsomal CLint at 1 μM [1] | microsomal CLint at 1 μM [2] | solubility kinetic at 1 h [3] | microsomal CLint at 1 μM [4] | IC50 (CHK-1 kinase)
3 | N#Cc1cnc(Nc2cc(-c3ccccc3OCC3CNC3)on2)cn1 [Compound 1.17, 5-(5-(2-(azetidin-3-ylmethoxy)phenyl)isoxazol-3-ylamino) pyrazine-2-carbonitrile] | 69% | 95% | 43 µL/min/mg | 26 µL/min/mg | 48 µM (≈ 16.7 µg/mL) | 50 µL/min/mg | 
4 | N#Cc1cnc(Nc2cc(-c3cc4ccccc4cc3OCC3CCCNC3)[nH]n2)cn1 (centres unmarked) [Compound 2.5, 5-(5-(3-(piperidin-3-ylmethoxy)naphthalen-2-yl)-1H-pyrazol-3-ylamino) pyrazine-2-carbonitrile] | 72% | 96% | 124 µL/min/mg | 14 µL/min/mg | 41.6 µM (≈ 17.7 µg/mL) | 111 µL/min/mg | 4.36 nM
5 | CN1CCOC(COc2ccccc2-c2cc(Nc3cnc(C#N)cn3)no2)C1 (centres unmarked) [Compound 1.8, 5-(5-(2-((4-methylmorpholin-2-yl)methoxy)phenyl)isoxazol-3-ylamino) pyrazine-2-carbonitrile] | 51% | 64% | 104 µL/min/mg | 202 µL/min/mg | 32 µM (≈ 12.6 µg/mL) | 481 µL/min/mg | 76.6 nM
